How the values were obtained:
CV-A6 = test: Post-treatment assay, antiviral spectrum; format: cell-based, Coxsackievirus A6
Description: We were also interested in the antiviral potential of ZAF-47 against other Enteroviruses. As such, we performed post-treatment assay on RD cells infected with other Enteroviruses such as CV-A16, CV-A6, Echo7, CV-B5, CV-A24 and EV-D68.
To determine the inhibitory profiles of the hits, post treatment assay was performed. Seeded 24-well plates, with 1.5 × 10^5 RD cells per well, were incubated overnight at 37 °C with 5% CO2. The seeded cells were infected with EV-A71 (100 µL per well, MOI = 1) for 1 h at 37 °C with 5% CO2 and then rinsed with 1 mL of PBS twice. Different concentrations of the hits were used to treat the infected cells for 12 h at 37 °C with 5% CO2. At 12 hpi, the plates were frozen and thawed for 2 cycles (−80°C; 37 °C) before collection of supernatants to measure the viral titres via viral plaque assay.
Measurement of the viral titres from collected supernatants was derived from viral plaque assays. To do this, 24-well plates, seeded with 2.4 × 10^5 RD cells per well, were used in plaque assays for EV-A71, EV-D68, Echo7, CV-A6, CV-A16 and CV-A24 while 24-well plates, seeded with 1.2 × 10^5 Vero cells per well, were used in plaque assays for CV-B5. Seeded cells were incubated overnight at 37 °C with 5% CO2. […] Subsequent formation of viral plaques was counted manually to quantify the viral titre in PFU/mL […]

EV-A71 virions = test: Co-treatment assay; format: cell-based, human enterovirus A71 (EV-A71) strain 41; conditions: 20 µM with virions for 30 min, 12 hpi
Description: To confirm this finding, assays to investigate the effect of ZAF-47 on EV-A71 entry into cells were performed. With pre-treatment assay, we first treated the cells with different concentrations of ZAF-47 before subjecting them to EV-A71 infection. The aim was to investigate if ZAF-47 was able to bind to host surface receptors which would prevent the virions from binding and thus blocking viral entry. […] Even at the highest concentration, the reduction in viral titre (0.8 log10 PFU/mL decrease) was not as pronounced as post-treatment and could likely be due to drug toxicity. Thus, it is unlikely that ZAF-47 inhibits EV-A71 infection by binding with host receptors to block viral entry. With co-treatment assay, we first treated EV-A71 virions with ZAF-47 for 30 min before infecting the cells. The aim was to investigate if ZAF-47 was able to bind to viral surface proteins which would prevent the virions from binding to the host receptors and thus blocking viral entry. […] Thus, it is unlikely that ZAF-47 blocks EV-A71 entry into host cells by binding to viral surface proteins. Instead, using entry bypass assay, we were able to deduce that ZAF-47 most likely targets EV-A71 post-entry stages. […]
Seeded 24-well plates, with 1.5 × 10^5 RD cells per well, were incubated overnight at 37 °C with 5% CO2. […] The plates were frozen down at 12 hpi for viral titre quantification using viral plaque assay.

EV-A71 Passage 21 = test: Post-treatment assay on EV-A71 passaged 21 times with ZAF-47 (resistant mutant generation); format: cell-based, human enterovirus A71 (EV-A71); conditions: supernatant from Passage 21, MOI = 1, RD cells
Description: Unfortunately, we were unable to obtain any resistant mutants as the viral titre for ZAF-47-treated remained lower than that of the controls at Passage 21. […] As a result, we hypothesize that ZAF-47 possibly targets host factor/s associated with EV-A71 RNA replication which makes it harder to generate resistant mutants.
Seeded 24-well plates, with 1.5 × 10^5 RD cells per well, were incubated overnight at 37 °C with 5% CO2. After which, the cells were subjected to EV-A71 infection (200 µL per well, MOI = 1) for 1 h before treatment with 800 µL of ZAF-47 at final concentration of 10 µM for 12 h at 37 °C with 5% CO2. Treatment with reduced serum DMEM and 0.1% DMSO functioned as negative and vehicle controls respectively. Upon 12 hpi, the supernatant was collected for viral plaque assay as well as to infect (200 µL) another seeded plate.

SMILES: CC(=O)OC[C@]1(C)C(=O)CC[C@@]2(C)C(C/C=C3/C(=O)OC[C@@H]3Oc3cccc4cccnc34)=C(C)CC[C@@H]21 [ZAF-47, (14β)-(8′-Quinolinoxy)-3-ketone-9-dehydro-17-hydro-19-acetoxy–andrographolide]
- viral titre (CV-A6; 10 µM, CV-A6-infected RD cells): reducing the viral titres of the above-listed enteroviruses significantly
- IC50 (CV-A6; CVA6, CV-A6, Enterovirus A, drug treatment duration 96 h, RD cells): 3.16 µM
- viral titre versus DMSO treatment (EV-A71 virions): no significant difference
- inhibition of passaged virus (EV-A71 Passage 21): still capable of inhibiting the passaged virus dose-dependently

Source: paper PMC8880313, “Discovery of Novel Andrographolide Derivatives as Antiviral Inhibitors against Human Enterovirus A71” (Pharmaceuticals, 2022)
